row,Structure (SMILES),melting point
1,Cc1ccc(COC(C)CN(O)C(N)=O)s1 (stereo not given),84 to 85 °C
2,CNC(=O)C(Cc1ccccc1)NC(=O)Nc1n[nH]c(=S)s1 (stereo not given),228 °C
3,FC(F)(F)c1cccnc1OCc1ccnc2cc(Cl)ccc12,125 to 127 °C
4,O=c1[nH]c2c(Cl)c(Cl)ccc2s1,229 °C
5,CC(=O)OC1C(=O)NC1c1ccco1 (stereo not given),118 to 119 °C
6,N#CC(Cc1ccccc1)=NNc1ccc(C(O)(C(F)(F)F)C(F)(F)F)cc1,164 to 167 °C
7,Nc1nc2ccccc2c2c1ncn2CCO,260 to 262 °C
8,Cc1nn(C)cc1C(=O)NC(C#N)c1ccco1 (stereo not given),122 °C
9,COc1ccc2c(c1)cc(C(=O)c1ccc(C)cc1)n2C,149 to 151 °C
10,CC12CC3CC(C)(C1)CC(NC(=O)CCl)(C3)C2,107 °C
11,C1=C(c2ccc3ccccc3c2)CCN(Cc2n[nH]c3ccccc23)C1,225 to 227 °C
12,CC(C(=O)n1c(=O)oc2ccccc21)C1(O)CCCCC1 (stereo not given),58 to 59 °C
13,Cc1cc2c(cc1Cl)N(C(=O)CN1CCN(c3ccccc3)CC1)c1ccccc1N(C)S2(=O)=O,194 to 196 °C
14,COc1cc2c(cc1OC)C(C=Cc1ccc(Cl)c(Cl)c1)=NNC(C)C2 (stereo not given),132 to 133 °C
15,Cc1c(Cl)cc(-c2ccc(=O)[nH]n2)cc1Br,247 to 250 °C
16,CCCCC[C@@H](O)C=C[C@@H]1[C@@H](CC(=O)O)[C@@H](O)C[C@H]1O,105 to 107 °C
17,CCNC(=O)C(C)Oc1ccc(N(C)c2nc3cc(Cl)ccc3o2)cc1 (stereo not given),141 to 142 °C
18,N#Cc1cc(N)ccc1NC(=O)c1ccc(N)cc1,242 to 244 °C
19,O=C(O)c1ccc(OCCC(c2ccccc2)(c2ccccc2)c2ccccc2)cc1,201 to 202 °C
20,CC(=O)c1ccc(CCNS(C)(=O)=O)cc1,80 to 81 °C
21,"CCC(C(=O)c1ccc(Cl)cc1)n1ncn(-c2ccc(N3CCN(c4cnccn4)CC3)nc2)c1=O (single isomer, unassigned; (+))",190 °C
22,CCCC1=C(C#N)C(c2ccccc2Cl)c2c(n[nH]c2CC(OC)OC)N1 (stereo not given),180 °C
23,COCOc1ccc(N2C(=O)[C@@H](N=[N+]=[N-])[C@H]2C=Cc2ccccc2)cc1 (relative stereo),111 to 112 °C
24,COc1ccc(N2CCN(c3c(C)c4c(c(OC)c3C)OC(C)C4)CC2)cc1F (stereo not given),120 to 122 °C
25,COc1ccc2ccc(N3C(=O)c4ccccc4C3CC(=O)CCCO)nc2n1 (stereo not given),152 °C

row,Structure (SMILES),melting point
1,O=C(NC(c1ccccc1)(c1ccccc1)c1ccccc1)c1ccccc1,200 to 202 °C
2,CC(C)NC1=NS(=O)(=O)c2cc(F)c(Cl)cc2N1,282 to 285 °C
3,CCN(CC)CCNC(=O)c1cc(N(C)S(C)(=O)=O)ccc1OC,48 to 50 °C
4,COc1ccc(C=CC(=O)c2ccc(OC)c(CC=C(C)C)c2O)cc1,97 to 97.5 °C
5,CC(C)c1nc(CO)n(Cc2ccc([N+](=O)[O-])cc2)c1Sc1cc(Cl)cc(Cl)c1,192 to 194 °C
6,CCN(CC)c1nc(Cl)nc(Cl)n1,77 to 79 °C
7,O=C(OCc1ccnc2ccccc12)ON1C(=O)CCC1=O,94 °C
8,Cc1cc(C#N)cc(C(=O)c2c(C(C)C)c(=O)[nH]c(=O)n2CC2(CC(N)=O)CC2)c1,283 to 285 °C
9,CCOC(=O)C(CCCCCc1ccc(Cl)cc1)C(N)=O (stereo not given),110 to 111 °C
10,CC(C)(C)OC(=O)N1CCC(Nc2nccc(-c3c(-c4ccc(F)cc4)nc4occn34)n2)CC1,175 °C
11,CCOCc1nc2c(N)nc3ccc(O)cc3c2n1CC(C)(C)NS(C)(=O)=O,252 to 254 °C
12,CC(C)(C)c1ccc2c(C#N)ccc(C#N)c2c1,58 to 59 °C
13,N#Cc1cc(F)c(N2C(=O)C3CCCCN3C2=O)nc1Cl (stereo not given),192 to 193 °C
14,CCCCn1nc(C(C)(F)F)nc1Cc1ccc(-c2ccccc2-c2nnn[nH]2)nc1,180 to 182 °C
15,CCn1c(C(C)N(C)S(=O)(=O)c2ccc(Cl)c(Cl)c2)cnc1Oc1ccc(Cl)cc1 (stereo not given),142 to 144 °C
16,O=C(NCCN1CCCC1)N1CCN(c2ccccc2)CC1,81.5 to 84 °C
17,COC(=O)c1ccc(Cl)cc1SCCC(=O)O,133 to 136 °C
18,CCC(C)NC(Nc1cc(Cl)cc(Cl)c1)=C(C#N)S(=O)(=O)c1ccc(Cl)cc1 (stereo not given),150 to 152 °C
19,CC(Cc1ccc(Br)cc1)C(=O)O (stereo not given),69 to 70 °C
20,Cc1cccc(N(C)c2n[nH]c3ncnc(Nc4cccc(Cl)c4)c23)n1,231 to 233 °C
21,CC(=O)Nc1ccc(S(=O)(=O)NCc2noc(-c3c4ccccc4nn3CCn3ccnc3)n2)cc1,160 to 161 °C
22,C=CCn1c(N)nc(N2CCc3ccccc3CC2)c(C#N)c1=O,181 to 182 °C
23,O=C1Nc2ccccc2SC1CCN1C=CN(c2ccc(F)cc2)C=C1 (stereo not given),158 to 159 °C
24,O=C(c1ccccc1)N1CCC(O)(c2ccccc2Cc2ccccc2)C1 (stereo not given),113 to 116 °C
25,O=C(CF)NCc1ccc2ccn(C3CCN(CCc4ccc(F)cc4)CC3)c2c1,106 to 108 °C

row,Structure (SMILES),melting point
1,CCCCCCOc1ccc(-c2ccc(OCCCCCCBr)cc2)cc1,103 to 105 °C
2,CCOC(=O)C(C)Oc1ccc(C)cc1 (stereo not given),78 to 82 °C
3,CC(=O)Nc1ccc(N2C(=O)C3CCC2n2c(=O)n(-c4ccccc4)c(=O)n23)cc1 (stereo not given),144 to 145 °C
4,OC1CSC(Oc2ccc(F)nc2)C(O)C1O (stereo not given),209 to 210 °C
5,COc1ccc(CN(C)CCCOc2ccc(NC(=O)c3cccc4c(=O)c5cccc(OC)c5[nH]c34)cc2)cc1OC,180 °C
6,Cc1ccccc1C1SCCCN1C(=S)Nc1cccc(Cl)c1 (stereo not given),134 to 136 °C
7,COc1ccc(S(=O)(=O)N2C(=O)C(OC(=O)Oc3ccccc3)(c3ccccc3C(F)(F)F)c3cc(Cl)ccc32)c(OC)c1 (stereo not given),191 °C
8,C=CCOc1ccc(C(=O)C=Cc2cc(OC)c(C)c(OC)c2)cc1,143 to 144 °C
9,COC(C)(C)c1ccc(-c2cc(-c3c[nH]nc3-c3cccc(C)n3)ccc2F)nc1,168 to 169 °C
10,COC(=O)[C@H](CC(C)C)NC(=O)[C@@H](O)[C@@H](Cc1ccc(SC)cc1)NC(=O)OCc1ccccc1,130 to 132 °C
11,CCCc1c(OCCOc2cccc(C(=O)O)c2)ccc(C(C)=O)c1O,155 °C
12,CCC(CC)(CC)C(=O)Nc1nn(C)c2c1sc1ncccc12,138 to 139 °C
13,CCCCCCSC(=S)N1Cc2[nH]c3ccccc3c2CC1CO (stereo not given),102 to 106 °C
14,O=C(c1ccc(C(=O)c2ccc(F)c([N+](=O)[O-])c2)cc1)c1ccc(F)c([N+](=O)[O-])c1,221 to 223 °C
15,COc1ccc(N)c(CCc2cc(OC)ccc2N)c1,69 to 71 °C
16,CN1CCN=C1C(Br)(Br)[N+](=O)[O-],88 to 90 °C
17,Cc1ccc(-n2nc(C(C)(C)C)cc2NC(=O)Nc2ccc(-c3cnc4c(c3)NC(=O)CO4)c3ccccc23)cc1,> 200 °C
18,O=S(=O)(c1cc(-c2ccc(F)cc2)c(-c2ccc(F)cc2)s1)C(F)(F)F,104 to 106 °C
19,Cc1ccc(N2CCN(CCCCc3ccc(C4CCC(=O)N4)cc3)CC2)cc1 (stereo not given),164 to 165 °C
20,COCCCn1c(COc2ccccc2)nc2c(N)nc3ccccc3c21,152 °C
21,CCNc1nc(-c2ccccc2)c(-c2ccccc2)nc1Cl,115 to 122 °C
22,O=C(Cn1cnc2cc(-c3ccc(Cl)cc3)sc2c1=O)c1ccc2c(c1)CCN(C(=O)C(F)(F)F)CC2,285 to 287 °C
23,NS(=O)(=O)c1cncc([N+](=O)[O-])c1,168 °C
24,CN(C)CCNc1ccc(NCCN(CCO)CCO)c2c1C(=O)c1c(O)ccc(O)c1C2=O,204 to 205 °C
25,CCCCC1(c2cccc(O)c2)CCCCN(C)C1=O (stereo not given),138 to 142 °C

row,Structure (SMILES),melting point
1,O=C(O)CNC1CCCc2ccccc21 (stereo not given),227 °C
2,CC1(CC(=O)N2CCC([C@H]3c4ncc(Br)cc4CCc4cc(Cl)cc(Br)c43)CC2)C=CN(S(C)(=O)=O)C=C1,105 to 109 °C
3,CC(C)(C)n1nnc(Cc2ccc(CBr)cc2)n1,73 to 74 °C
4,Cc1cc(I)ccc1Nc1c(C(=O)O)cc(F)c(F)c1F,206 to 210 °C
5,Cc1cc(=O)[nH]c2c3c(cc(O)c12)OC(C)C(C)C3=O (stereo not given),300 °C
6,C=CCSc1cc(C(=O)O)cc(S(=O)(=O)Cl)c1Oc1ccccc1,160 to 162 °C
7,COc1cccc(S)c1S(N)(=O)=O,166 °C
8,O=c1[nH]c(-c2ccccc2)ncc1[N+](=O)[O-],264 to 266 °C
9,CNCC1Cc2cc(F)cc(-c3ccccc3C)c2O1 (stereo not given),123 to 124 °C
10,COc1ccc(S(=O)(=O)n2c(N)nc3c2c(=O)n(CC2CC2)c(=O)n3CC2CC2)cc1,177 to 178 °C
11,CC(=O)c1cc(Oc2ncccc2C(=O)NC[C@H]2CC[C@H](C(C)(C)O)CC2)ccc1Cl,106 to 108 °C
12,CCOCC1(F)CCN([C@@H](c2ccc(C(F)(F)F)cc2CN(Cc2cc(C(F)(F)F)cc(C(F)(F)F)c2)c2nnn(C)n2)C(C)C)CC1,95 °C
13,CCOc1ncc(C(C)=O)cc1C(=O)Nc1c(C(N)=O)nn(CC2CC2)c1CC,238 to 240 °C
14,Clc1ccccc1Oc1c(Cl)ncnc1Cl,76 to 77 °C
15,COc1ccc(C2(C)C(=O)Nc3cc(N4CCN(C)CC4)cc(Cl)c3C2=O)cc1 (stereo not given),201 to 202 °C
16,CNC(=O)c1cc(C#N)cc(C)c1N,202 to 203 °C
17,ClC(c1ccccc1)(c1ccccc1)c1ccncc1,84.5 to 86.5 °C
18,COCc1cc(CCCOc2c(Cl)cc(-c3noc(C)n3)cc2Cl)on1,55.5 to 56 °C
19,CCC1(CCOC2CCCCO2)C(=O)N2CC=CC(C(=O)OC)N2C1=O (stereo not given),96 to 97 °C
20,CCOc1ccc2nc(CN3CCN(c4ccc(Cl)cc4Cl)CC3)cn2c1,171 to 172 °C
21,CC(C)(C)OC(=O)Nc1ccc(O)c(C(=O)O)c1,> 270 °C
22,CC(C)CCOc1ccc(OCn2cnc(Cl)c2Cl)cc1,105 to 108 °C
23,Cc1cnc2[nH]cc(/C=C3\N=C(NCC4CC4)NC3=O)c2c1,319 to 320 °C
24,Cc1cccc(-c2[nH]c(C(C)C)nc2-c2cccc(-c3ccsc3)c2)n1,83 to 85 °C
25,COc1ccc(Cc2ncc[nH]2)cc1,158 to 160 °C

# — a melting point compilation (Tetko et al.; mined from patent text by program, amines drawn as free bases though some values may be those of a salt)
